Results taken from patent publication US8431597B2, “Benzimidazole derivatives” (Pfizer Inc., priority 2007, dated 2013).
Structures can show the parent of a compound that is named as a salt.

Target: T1, Smoothened (SMO) (Mus musculus, UniProt P56726)
T1 construct: C3H10T1/2 cells (ATCC #CCL-226) were split and seeded; endogenous in cells; host or cells: C3H10T1/2 (ATCC #CCL-226)
Experiment: Smoothened (SMO)/Sonic Hedgehog (SHh) Transient Transcriptional Activation Assay (Gli-luciferase reporter in C3H10T1/2 cells)
Type: cell-based, murine
Conditions: C3H 10T1/2, 2 μM compound; transfected C3H10T1/2 cells, recombinant human SHh 250 ng/mL, 20 hours, luciferase readout; read-out: SMO CELL % INHIBITION @ 2 μM
How it was run: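 C3H10T1/2 cells transiently transfected with a murine Gli-responsive firefly luciferase reporter plus pEGFP were serum-starved 20 h in 0.5% calf serum. Compound (2 μM to 2 nM final) was added with recombinant human SHh at 250 ng/mL final for 20 h at 37 °C. Read-out was Dual-Glo luminescence.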

T1 sequence (P56726 33-793): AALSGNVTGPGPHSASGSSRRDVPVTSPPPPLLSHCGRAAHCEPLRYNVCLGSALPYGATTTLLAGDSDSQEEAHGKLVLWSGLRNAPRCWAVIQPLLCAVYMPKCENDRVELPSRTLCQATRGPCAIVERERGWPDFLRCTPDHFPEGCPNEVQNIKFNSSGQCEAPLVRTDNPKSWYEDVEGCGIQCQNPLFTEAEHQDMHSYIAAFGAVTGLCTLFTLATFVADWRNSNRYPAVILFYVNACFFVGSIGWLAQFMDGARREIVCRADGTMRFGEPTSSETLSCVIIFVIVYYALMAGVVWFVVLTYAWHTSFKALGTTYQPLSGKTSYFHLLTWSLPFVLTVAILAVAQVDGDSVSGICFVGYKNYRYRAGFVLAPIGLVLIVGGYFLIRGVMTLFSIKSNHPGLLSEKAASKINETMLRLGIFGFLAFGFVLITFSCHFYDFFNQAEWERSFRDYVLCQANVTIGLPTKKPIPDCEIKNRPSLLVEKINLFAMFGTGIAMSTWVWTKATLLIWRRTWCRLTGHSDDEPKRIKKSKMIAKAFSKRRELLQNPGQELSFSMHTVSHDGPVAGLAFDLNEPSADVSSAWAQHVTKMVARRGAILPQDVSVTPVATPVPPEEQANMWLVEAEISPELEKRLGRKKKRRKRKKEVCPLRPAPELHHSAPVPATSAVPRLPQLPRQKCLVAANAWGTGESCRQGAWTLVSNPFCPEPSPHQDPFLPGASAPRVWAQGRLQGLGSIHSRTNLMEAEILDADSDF

Row | SMILES | inhibition at 2 µM [%]
1 | CN1CC[C@@H](NC(=O)c2ccc3c(c2F)OCCO3)C[C@@H]1c1nc2cc(Cl)ccc2[nH]1 [Example 142, N-[(2R,4R)-2-(5-chloro-1H-benzimidazol-2-yl)-1-methylpiperidin-4-yl]-5-fluoro-2,3-dihydro-1,4-benzodioxine-6-carboxamide triflouroacetate] | 101
2 | CN1CC[C@@H](NC(=O)Cc2ccc3c(c2)CCO3)C[C@@H]1c1nc2ccccc2[nH]1 [Example 116, N-[(2R,4R)-2-(1H-benzimidazol-2-yl)-1-methylpiperidin-4-yl]-2-(2,3-dihydro-1-benzofuran-5-yl)acetamide trifluoroacetate] | 68.2
3 | CN1CC[C@@H](NC(=O)Nc2ccc(C#N)cc2)C[C@@H]1c1nc2cc(F)ccc2[nH]1 [Example 51, 1-(4-cyanophenyl)-3-[(2R,4R)-2-(5-fluoro-1H-benzimidazol-2-yl)-1-methylpiperidin-4-yl]urea hydrochloride] | 105
4 | Cc1ccc2nc([C@@H]3C[C@@H](NC(=O)Nc4ccc(Cl)c(C(F)(F)F)c4)CN3C)[nH]c2c1 [Example 17, 1-[4-chloro-3-(trifluoromethyl)phenyl]-3-[(3R,5S)-1-methyl-5-(6-methyl-1H-benzimidazol-2-yl)pyrrolidin-3-yl]urea] | 63.2
5 | COc1cccc(C(=O)N[C@@H]2CCN(C)[C@@H](c3nc4ccccc4[nH]3)C2)c1 [Example 112, N-[(2R,4R)-2-(1H-benzimidazol-2-yl)-1-methylpiperidin-4-yl]-3-methoxybenzamide trifluoroacetate] | 81.7
6 | COc1ccc(NC(=O)N[C@@H]2CCN(C)[C@@H](c3nc4cc(C)ccc4[nH]3)C2)cn1 [Example 137, 1-{6-methoxypyridin-3-yl)-3-[(2R.4R)-1-methyl-2-(5-methyl-1H-benzimidazol-2-yl)piperidin-4-yl]urea hydrochloride] | 102
7 | CN1CC[C@@H](NC(=O)Nc2ccc(C#N)cc2)C[C@@H]1c1nc2ccccc2[nH]1 [Example 31, 1-[(2R,4R)-2-(1H-benzimidazol-2-yl)-1-methylpiperidin-4-yl]-3-(4-cyanophenyl)urea hydrochloride] | 107
8 | COc1cncc(NC(=O)N[C@@H]2CCN(C)[C@@H](c3nc4ccccc4[nH]3)C2)c1 [Example 96, 1-[(2R,4R)-2-(1H-benzimidazol-2-yl)-1-methylpiperidin-4-yl]-3-(5-methoxypyridin-3-yl)urea hydrochloride] | 76.3
9 | CN1CC[C@@H](NC(=O)Nc2cccc(C#N)c2)C[C@@H]1c1nc2ccccc2[nH]1 [Example 88, 1-[(2R,4R)-2-(1H-benzimidazol-2-yl)-1-methylpiperidin-4-yl]-3-(3-cyanophenyl)urea hydrochloride] | 92.1
10 | CN1CC[C@@H](NC(=O)[C@@H]2COc3ccccc3O2)C[C@@H]1c1nc2ccccc2[nH]1 [Example 105, (2S)-N-[(2R,4R)-2-(1H-benzimidazol-2-yl)-1-methylpiperidin-4-yl]-2,3-dihydro-1,4-benzodioxine-2-carboxamide trifluoroacetate] | 97.8
11 | CN1CC[C@@H](NC(=O)Nc2cccnc2)C[C@@H]1c1nc2ccccc2[nH]1 [Example 80, 1-[(2R,4R)-2-(1H-benzimidazol-2-yl)-1-methylpiperidin-4-yl]-3-pyridin-3-ylurea hydrochloride] | 98
12 | O=C(N[C@@H]1CCN[C@@H](c2nc3ccccc3[nH]2)C1)c1ccc2c(c1)OCCO2 [Example 99, N-[(2R,4R)-2-(1H-benzimidazol-2-yl)piperidin-4-yl]-2,3-dihydro-1,4-benzodioxine-6-carboxamide trifluoroacetate] | 72
13 | CCN1CC[C@@H](NC(=O)Nc2ccc(C#N)cc2)C[C@@H]1c1nc2ccccc2[nH]1 [Example 46, 1-[(2R,4R)-2-(1H-benzimidazol-2-yl)-1-ethylpiperidin-4-yl]-3-(4-cyanophenyl)urea] | 105
14 | Cc1ccc(NC(=O)N[C@@H]2CCN(C)[C@@H](c3nc4ccccc4[nH]3)C2)c(C)n1 [Example 48, 1-[(2R,4R)-2-(1H-benzimidazol-2-yl)-1-methylpiperidin-4-yl]-3-(2,6-dimethylpyridin-3-yl)urea hydrochloride] | 105
15 | CC(C)(C)OC(=O)N1C[C@H](NC(=O)Nc2ccc(Cl)c(C(F)(F)F)c2)C[C@H]1c1nc2ccccc2[nH]1 [Example 24, tert-butyl (2S,4R)-2-(1H-benzimidazol-2-yl)-4-[({[4-chloro-3-(trifluoromethyl)phenyl]amino}carbonyl)amino]pyrrolidine-1-carboxylate] | 63.1
16 | Cc1ccc(NC(=O)N[C@@H]2CCN(C3CCC3)[C@@H](c3nc4ccccc4[nH]3)C2)cn1 [Example 150, 1-[(2R,4R)-2-(1H-benzimidazol-2-yl)-1-cyclobutyl-piperidin-4-yl]-3-(6-methylpyridin-3-yl)urea triflouroacetate] | 106

Row | SMILES | inhibition at 2 µM [%]
17 | CN1C[C@@H](NC(=O)c2ccc3c(c2)OCCO3)C[C@H]1c1nc2ccccc2[nH]1 [Example 21, N-[(3S,5S)-5-(1H-benzimidazol-2-yl)-1-methylpyrrolidin-3-yl]-2,3-dihydro-1,4-benzodioxine-6-carboxamide] | 61.8
18 | CN1CC[C@@H](NC(=O)NCc2ccccc2)C[C@@H]1c1nc2ccccc2[nH]1 [Example 76, 1-[(2R,4R)-2-(1H-benzimidazol-2-yl)-1-methylpiperidin-4-yl]-3-benzylurea hydrochloride] | 100
19 | CN1CC[C@@H](NC(=O)c2ccc3c(c2)OCCO3)C[C@@H]1c1nc2ccc(Cl)cc2[nH]1 [Example 34, N-[(2R,4R)-2-(6-chloro-1H-benzimidazol-2-yl)-1-methylpiperidin-4-yl]-2,3-dihydro-1,4-benzodioxine-6-carboxamide hydrochloride] | 107
20 | CN1CC[C@@H](NC(=O)c2ccc3c(c2)CCO3)C[C@@H]1c1nc2ccccc2[nH]1 [Example 47, N-[(2R,4R)-2-(1H-benzimidazol-2-yl)-1-methylpiperidin-4-yl]-2,3-dihydro-1-benzofuran-5-carboxamide hydrochloride] | 105
21 | N#Cc1ccc(NC(=O)N[C@@H]2CCN(Cc3ccccc3)[C@@H](c3nc4ccccc4[nH]3)C2)cc1 [Example 61, 1-[(2R,4R)-2-(1H-benzimidazol-2-yl)-1-benzylpiperidin-4-yl]-3-(4-cyanophenyl)urea] | 99.5
22 | Cc1cc2nc([C@H]3C[C@H](NC(=O)Nc4ccc(C#N)cc4)CCN3C)[nH]c2cc1C [Example 52, 1-(4-cyanophenyl)-3-[(2R,4R)-2-(5,6-dimethyl-1H-benzimidazol-2-yl)-1-methylpiperidin-4-yl]urea hydrochloride] | 105
23 | CN1CC[C@@H](NC(=O)Nc2ccc(OC(F)(F)F)cc2)C[C@@H]1c1nc2ccccc2[nH]1 [Example 15, 1-[(2R,4R)-2-(1H-benzimidazol-2-yl)-1-methylpiperidin-4-yl]-3-[4-(trifluoromethoxy)phenyl]urea hydrochloride] | 111
24 | CN1CC[C@@H](NC(=O)Nc2ccc(C#N)cc2)C[C@@H]1c1nc2cc(C(F)(F)F)ccc2[nH]1 [Example 7, 1-(4-cyanophenyl)-3-{(2R,4R)-1-methyl-2-[5-(trifluoromethyl)-1H-benzimidazol-2-yl]piperidin-4-yl}urea hydrochloride] | 109
25 | CN1CC[C@@H](NC(=O)c2ccc3c(c2Cl)OCCO3)C[C@@H]1c1nc2ccccc2[nH]1 [Example 144, N-[(2R,4R)-2-(1H-benzimidazol-2-yl)-1-methylpiperidin-4-yl]-5-chloro-2,3-dihydro-1,4-benzodioxine-6-carboxamide triflouroacetate] | 108
26 | O=C(N[C@@H]1CCN(C2CC2)[C@@H](c2nc3ccccc3[nH]2)C1)c1ccc2c(c1)OCCO2 [Example 125, N-[(2R,4R)-2-(1H-benzimidazol-2-yl)-1-cyclopropylpiperidin-4-yl]-2,3-dihydro-1,4-benzodioxine-6-carboxamide hydrochloride] | 102
27 | CN1CC[C@@H](NC(=O)Nc2ccccc2)C[C@@H]1c1nc2ccccc2[nH]1 [Example 75, 1-[(2R,4R)-2-(1H-benzimidazol-2-yl)-1-methylpiperidin-4-yl]-3-phenylurea hydrochloride] | 100
28 | CN1CC[C@@H](NC(=O)Cc2ccc(Cl)s2)C[C@@H]1c1nc2ccccc2[nH]1 [Example 78, N-[(2R,4R)-2-(1H-benzimidazol-2-yl)-1-methylpiperidin-4-yl]-2-(5-chloro-2-thienyl)acetamide hydrochloride] | 99.3
29 | Cc1ccc2nc([C@H]3C[C@H](NC(=O)c4ccc5c(c4)OCCO5)CCN3C)[nH]c2c1 (stereo in doubt) [Example 6, 2,3-Dihydro-benzo[1,4]dioxine-6-carboxylic acid [1-methyl-2-(6-methyl-1H-benzoimidazol-2-yl)-piperidin-4-yl]-amide hydrochloride] | 105
30 | CN1CC[C@@H](NC(=O)Nc2ccc(F)nc2)C[C@@H]1c1nc2ccccc2[nH]1 [Example 32, 1-[(2R,4R)-2-(1H-benzimidazol-2-yl)-1-methylpiperidin-4-yl]-3-(6-fluoropyridin-3-yl)urea hydrochloride] | 107
31 | O=C(N[C@@H]1CCN2CCn3c(nc4ccccc43)[C@H]2C1)c1ccc2c(c1)OCCO2 [Example 12, N-[(2R,13bR)-1,3,4,6,7,13b-hexahydro-2H-pyrido[2′,1′:3,4]pyrazino[1,2-a]benzimidazol-2-yl]-2,3-dihydro-1,4-benzodioxine-6-carboxamide hydrochloride] | 64.1
